# Patent US12077503B2, “Substituted cyclic amides and their use as herbicides” (FMC CORPORATION, priority 2015, dated 2024)
# Key:
# Format in all cases: in vivo
# [1] = tested on: giant foxtail (Setaria faberii); assay: Test A preemergence; settings: Preemergence
# Text: (§1) Seeds of plant species selected from barnyardgrass (Echinochloa crus-galli), Kochia (Kochia scoparia), ragweed (common ragweed, Ambrosia elatior), ryegrass, Italian (Italian ryegrass, Lolium multiflorum), crabgrass, large (Digitaria sanguinalis), giant foxtail (Setaria faberii), green foxtail (Setaria viridis), morningglory (Ipomoea spp.), pigweed (Amaranthus retroflexus), velvetleaf (Abutilon theophrasti), wheat (Triticum aestivum), and corn (Zea mays) were planted into a blend of loam soil and sand and treated preemergence with a directed soil spray using test chemicals formulated in anon-phytotoxic solvent mixture which included a surfactant.
# (§2) At the same time, plants selected from these crop and weed species and also blackgrass (Alopecurus myosuroides), and Galium (catchweed bedstraw, Galium aparine) were planted in pots containing the same blend of loam soil and sand and treated with postemergence applications of test chemicals formulated in the same manner. Plants ranged in height from 2 to 10 cm and were in the one- to two-leaf stage for the postemergence treatment. Treated plants and untreated controls were maintained in a greenhouse for approximately 10 d, after which time all treated plants were compared to untreated controls and visually evaluated for injury. Plant response ratings, summarized in Table A, are based on a 0 to 100 scale where 0 is no effect and 100 is complete control. A dash (-) response means no test result.
# [2] = tested on: ragweed (common ragweed, Ambrosia elatior); assay: Test A preemergence; settings: Preemergence
# Text: as §1, §2
# Kochia (Kochia scoparia) [3] = assay: Test A preemergence; settings: Preemergence
# Text: as §1, §2
# [4] = tested on: pigweed (Amaranthus retroflexus); assay: Test A preemergence; settings: Preemergence
# Text: as §1, §2
# [5] = tested on: ryegrass, Italian (Italian ryegrass, Lolium multiflorum); assay: Test A preemergence; settings: Preemergence
# Text: as §1, §2
# [6] = tested on: barnyardgrass (Echinochloa crus-galli); assay: Test A preemergence; settings: Preemergence
# Text: as §1, §2
# [7] = tested on: giant foxtail (Setaria faberii); assay: Test A postemergence; settings: Postemergence
# Text: as §1, §2
# [8] = tested on: wheat (Triticum aestivum); assay: Test A postemergence; settings: Postemergence
# Text: as §1, §2
# [9] = tested on: blackgrass (Alopecurus myosuroides); assay: Test A postemergence; settings: Postemergence
# Text: as §1, §2
# [10] = tested on: ragweed (common ragweed, Ambrosia elatior); assay: Test A postemergence; settings: Postemergence
# Text: as §1, §2
# Kochia (Kochia scoparia) [11] = assay: Test A postemergence; settings: Postemergence
# Text: as §1, §2
# [12] = tested on: pigweed (Amaranthus retroflexus); assay: Test A postemergence; settings: Postemergence
# Text: as §1, §2
# corn (Zea mays) [13] = assay: Test A postemergence; settings: Postemergence
# Text: as §1, §2
# [14] = tested on: ryegrass, Italian (Italian ryegrass, Lolium multiflorum); assay: Test A postemergence; settings: Postemergence
# Text: as §1, §2
# [15] = tested on: barnyardgrass (Echinochloa crus-galli); assay: Test A postemergence; settings: Postemergence
# Text: as §1, §2
# rice (Oryra sativa) = assay: Test B flooded paddy test; settings: Flood, 250 g ai/ha; visually evaluated after 13 to 15 d
# Description: (§3) Plant species in the flooded paddy test selected from rice (Oryra sativa), sedge, umbrella (small-flower umbrella sedge, Cyperus difformis), ducksalad (Heteranthera limosa), and barnyardgrass (Echinochloa crus-galli) were grown to the 2-leaf stage for testing. At time of treatment, test pots were flooded to 3 cm above the soil surface, treated by application of test compounds directly to the paddy water, and then maintained at that water depth for the duration of the test. Treated plants and controls were maintained in a greenhouse for 13 to 15 d, after which time all species were compared to controls and visually evaluated. Plant response ratings, summarized in Table B, are based on a scale of 0 to 100 where 0 is no effect and 100 is complete control. A dash (-) response means no test result.
# [16] = tested on: sedge, umbrella (small-flower umbrella sedge, Cyperus difformis); assay: Test B flooded paddy test; settings: Flood, 250 g ai/ha; visually evaluated after 13 to 15 d
# Description: as §3
# [17] = tested on: ducksalad (Heteranthera limosa); assay: Test B flooded paddy test; settings: Flood, 250 g ai/ha; visually evaluated after 13 to 15 d
# Description: as §3
# [18] = tested on: barnyardgrass (Echinochloa crus-galli); assay: Test B flooded paddy test; settings: Flood, 250 g ai/ha; visually evaluated after 13 to 15 d
# Description: as §3
# [19] = tested on: velvetleaf (Abutilon theophrasti); assay: Test G Pre-Emergence Protocol; settings: Abutilon theophrasti, pre-emergence, 312 h, evaluated after 13 days
# Description: (§4) Seeds of corn (Zea mays), giant foxtail (Setaria faberi), barnyardgrass (Echinochloa crus-galli), ivy-leaved morning glory (Ipomoea hederacea), redroot pigweed (Amaranthus retroflexus) and velvetleaf (Abutilon theophrasti) were sown in standard soil in pots. After cultivation for one day under controlled conditions in a glasshouse (at 24/16° C., day/night; 14 hours light; 65% humidity), the plants were sprayed with an aqueous spray solution derived from the formulation of the technical active ingredient in acetone/water (50:50) solution containing 0.5% Tween 20 (polyoxyethylene sorbitan monolaurate, CAS RN 9005-64-5) to give a final dose of 15.625, 62.5 or 250 g/ha of test compound.
# (§5) The test plants were then grown on under controlled conditions in a glasshouse (at 24/16° C., day/night; 14 hours light; 65% humidity) and watered twice daily. After 13 days the test was evaluated (100=total damage to plant; 0=no damage to plant). A dash (-) means no test result.
# [20] = tested on: redroot pigweed (Amaranthus retroflexus); assay: Test G Pre-Emergence Protocol; settings: Amaranthus retroflexus, pre-emergence, 312 h, evaluated after 13 days
# Description: as §4, §5
# [21] = tested on: giant foxtail (Setaria faberi); assay: Test G Pre-Emergence Protocol; settings: Setaria faberi, pre-emergence, 312 h, evaluated after 13 days
# Description: as §4, §5
# [22] = tested on: ivy-leaved morning glory (Ipomoea hederacea); assay: Test G Pre-Emergence Protocol; settings: Ipomoea, pre-emergence, 312 h, 15.625 g ai/ha, evaluated after 13 days, read-out: Morningglory, Ivy-leaved damage rating (100=total damage to plant; 0=no damage to plant)
# Description: as §4, §5
# corn (Zea mays) [23] = assay: Test G Pre-Emergence Protocol; settings: Zea mays, pre-emergence, 312 h, evaluated after 13 days
# Description: as §4, §5
# [24] = tested on: barnyardgrass (Echinochloa crus-galli); assay: Test G Pre-Emergence Protocol; settings: Echinochloa crus-galli, pre-emergence, 312 h, evaluated after 13 days
# Description: as §4, §5
# [25] = tested on: velvetleaf (Abutilon theophrasti); assay: Test G Post-Emergence Protocol; settings: Abutilon theophrasti, post-emergence, 312 h, read-out: Velvetleaf damage rating
# Description: as §4, with “8 days” for “one day”
# as §5
# [26] = tested on: redroot pigweed (Amaranthus retroflexus); assay: Test G Post-Emergence Protocol; settings: Amaranthus retroflexus, post-emergence, 312 h, read-out: Pigweed, Redroot damage rating
# Description: as §4, with “8 days” for “one day”
# as §5
# [27] = tested on: giant foxtail (Setaria faberi); assay: Test G Post-Emergence Protocol; settings: Setaria faberi, post-emergence, 312 h, read-out: Foxtail, Giant damage rating
# Description: as §4, with “8 days” for “one day”
# as §5
# [28] = tested on: ivy-leaved morning glory (Ipomoea hederacea); assay: Test G Post-Emergence Protocol; settings: Ipomoea, post-emergence, 312 h, read-out: Morningglory, Ivy-leaved damage rating
# Description: as §4, with “8 days” for “one day”
# as §5
# corn (Zea mays) [29] = assay: Test G Post-Emergence Protocol; settings: Zea mays, post-emergence, 312 h, read-out: Corn damage rating
# Description: as §4, with “8 days” for “one day”
# as §5
# [30] = tested on: barnyardgrass (Echinochloa crus-galli); assay: Test G Post-Emergence Protocol; settings: Echinochloa crus-galli, post-emergence, 312 h, read-out: Barnyardgrass damage rating
# Description: as §4, with “8 days” for “one day”
# as §5
# [31] = 31 g ai/ha, 0 to 100 scale where 0 is no effect and 100 is complete control
# [32] = 125 g ai/ha, 0 to 100 scale (0 no effect, 100 complete control)
# [33] = 125 g ai/ha, visual rating about 10 d after treatment
# [34] = 31 g ai/ha, 0 is no effect, 100 is complete control
# [35] = 15.625 g ai/ha, evaluated after 13 days (100=total damage to plant; 0=no damage to plant)
# [36] = 62.5 g ai/ha, evaluated after 13 days, 100=total damage to plant, 0=no damage to plant
compound,measurement,setting,value
CN1C[C@H](c2ccc3c(c2)OC(F)(F)O3)[C@@H](C(=O)Nc2cccc([N+](=O)[O-])c2)C1=O [Compound 1353],"Foxtail, Giant plant response rating",[1]; [31],80
same,"Plant response rating, Foxtail, Giant",[1]; [32],100
same,Ragweed plant response rating,[2]; [31],40
same,"Plant response rating, Ragweed",[2]; [32],0
same,Kochia plant response rating,Kochia (Kochia scoparia) [3]; [31],60
same,"Plant response rating, Kochia",Kochia (Kochia scoparia) [3]; [32],80
same,Pigweed plant response rating,[4]; [31],0
same,"Plant response rating, Pigweed",[4]; [32],30
same,"Ryegrass, Italian plant response rating",[5]; [31],10
same,"Plant response rating, Ryegrass, Italian",[5]; [32],20
same,Barnyardgrass plant response rating,[6]; [31],0
same,"Plant response rating, Barnyardgrass",[6]; [32],70
same,"Foxtail, Giant plant response rating (0 to 100 scale)",[7]; [33],70
same,"Foxtail, Giant plant response rating (0 to 100 scale)",[7]; [34],30
same,Wheat plant response rating (0 to 100 scale),[8]; [33],0
same,Wheat plant response rating (0 to 100 scale),[8]; [34],0
same,Blackgrass plant response rating (0 to 100 scale),[9]; [33],20
same,Blackgrass plant response rating (0 to 100 scale),[9]; [34],0
same,Ragweed plant response rating (0 to 100 scale),[10]; [33],0
same,Ragweed plant response rating (0 to 100 scale),[10]; [34],0
same,Kochia plant response rating (0 to 100 scale),Kochia (Kochia scoparia) [11]; [33],20
same,Kochia plant response rating (0 to 100 scale),Kochia (Kochia scoparia) [11]; [34],0
same,Pigweed plant response rating (0 to 100 scale),[12]; [33],20
same,Pigweed plant response rating (0 to 100 scale),[12]; [34],0
same,Corn plant response rating (0 to 100 scale),corn (Zea mays) [13]; [33],0
same,Corn plant response rating (0 to 100 scale),corn (Zea mays) [13]; [34],0
same,"Ryegrass, Italian plant response rating (0 to 100 scale)",[14]; [33],0
same,"Ryegrass, Italian plant response rating (0 to 100 scale)",[14]; [34],0
same,"Barnyardgrass plant response rating (0 to 100 scale, 0 no effect, 100 complete control)",[15]; [33],90
same,Barnyardgrass plant response rating (0 to 100 scale),[15]; [34],40
same,"Plant response rating, Rice (0 to 100 scale where 0 is no effect and 100 is complete control)",rice (Oryra sativa),0
same,"Plant response rating, Sedge, Umbrella (0 to 100 scale where 0 is no effect and 100 is complete control)",[16],0
same,"Plant response rating, Ducksalad (0 to 100 scale where 0 is no effect and 100 is complete control)",[17],40
same,"Plant response rating, Barnyardgrass (0 to 100 scale where 0 is no effect and 100 is complete control)",[18],60
CCOc1cc(F)cc(C2CN(C)C(=O)C2C(=O)Nc2cccc(F)c2F)c1 (stereo not drawn) [Compound 1695],pest or weed control at 15.625 g/ha,"[19]; 15.625 g ai/ha, read-out: Velvetleaf damage rating (100=total damage to plant; 0=no damage to plant)",0%
same,pest or weed control at 62.5 g/ha,"[19]; 62.5 g ai/ha, 100=total damage to plant, 0=no damage to plant, read-out: Velvetleaf damage rating",0%
same,pest or weed control at 15.625 g/ha,"[20]; 15.625 g ai/ha, read-out: Pigweed, Redroot damage rating (100=total damage to plant; 0=no damage to plant)",0%
same,pest or weed control at 62.5 g/ha,"[20]; 62.5 g ai/ha, 100=total damage to plant, 0=no damage to plant, read-out: Pigweed, Redroot damage rating",0%
same,pest or weed control at 15.625 g/ha,"[21]; 15.625 g ai/ha, read-out: Foxtail, Giant damage rating (100=total damage to plant; 0=no damage to plant)",70%
same,pest or weed control at 62.5 g/ha,"[21]; 62.5 g ai/ha, 100=total damage to plant, 0=no damage to plant, read-out: Foxtail, Giant damage rating",90%
same,pest or weed control at 15.625 g/ha,[22],0%
same,plant injury at 15.625 g/ha,"corn (Zea mays) [23]; 15.625 g ai/ha, read-out: Corn damage rating (100=total damage to plant; 0=no damage to plant)",10%
same,plant injury at 62.5 g/ha,"corn (Zea mays) [23]; 62.5 g ai/ha, 100=total damage to plant, 0=no damage to plant, read-out: Corn damage rating",40%
same,pest or weed control at 15.625 g/ha,"[24]; 15.625 g ai/ha, read-out: Barnyardgrass damage rating (100=total damage to plant; 0=no damage to plant)",50%
same,pest or weed control at 62.5 g/ha,"[24]; 62.5 g ai/ha, 100=total damage to plant, 0=no damage to plant, read-out: Barnyardgrass damage rating",90%
same,pest or weed control at 15.625 g/ha,[25]; [35],0%
same,pest or weed control at 62.5 g/ha,[25]; [36],10%
same,pest or weed control at 15.625 g/ha,[26]; [35],10%
same,pest or weed control at 62.5 g/ha,[26]; [36],10%
same,pest or weed control at 15.625 g/ha,[27]; [35],80%
same,pest or weed control at 62.5 g/ha,[27]; [36],80%
same,pest or weed control at 15.625 g/ha,[28]; [35],10%
same,pest or weed control at 62.5 g/ha,[28]; [36],20%
same,plant injury at 15.625 g/ha,corn (Zea mays) [29]; [35],30%
same,plant injury at 62.5 g/ha,corn (Zea mays) [29]; [36],70%
same,pest or weed control at 15.625 g/ha,[30]; [35],80%
same,pest or weed control at 62.5 g/ha,[30]; [36],80%
